Experiments:
[1] = target: Dual specificity mitogen-activated protein kinase kinase 1 (Homo sapiens) (UniProt Q02750); test: Inhibition of MEK1 at 0.1 uM; values are per cent of control
[2] = target: Serine/threonine-protein kinase pim-2 (Homo sapiens) (UniProt Q9P1W9); test: Inhibition of Pim-2 at 0.1 uM; values are per cent of control
[3] = target: Glycogen synthase kinase-3 beta (Homo sapiens) (UniProt P49841); test: Inhibition of GSK3-beta at 0.1 uM; values are per cent of control
[4] = target: Tyrosine-protein kinase Fes/Fps (Homo sapiens) (UniProt P07332); test: Inhibition of Fes at 1 uM; values are per cent of control
[5] = target: Interleukin-1 receptor-associated kinase 1 (Homo sapiens) (UniProt P51617); test: Inhibition of IRAK1 at 0.1 uM; values are per cent of control
[6] = target: Mitogen-activated protein kinase 10 (Homo sapiens) (UniProt P53779); test: Inhibition of JNK3 at 0.1 uM; values are per cent of control
[7] = target: Mitogen-activated protein kinase 14 (Homo sapiens) (UniProt Q16539); test: Inhibition of SAPK2a at 0.1 uM; values are per cent of control
[8] = target: Protein kinase C alpha type (Homo sapiens) (UniProt P17252); test: Inhibition of PKCalpha at 0.1 uM; values are per cent of control
[9] = target: Tyrosine-protein kinase Yes (Homo sapiens) (UniProt P07947); test: Inhibition of Yes at 0.1 uM; values are per cent of control
[10] = target: T1, Serine/threonine-protein kinase Chk1 (Homo sapiens) (UniProt O14757); test: Inhibition of CHK1 at 1 uM; values are per cent of control
T1 sequence (whole entry): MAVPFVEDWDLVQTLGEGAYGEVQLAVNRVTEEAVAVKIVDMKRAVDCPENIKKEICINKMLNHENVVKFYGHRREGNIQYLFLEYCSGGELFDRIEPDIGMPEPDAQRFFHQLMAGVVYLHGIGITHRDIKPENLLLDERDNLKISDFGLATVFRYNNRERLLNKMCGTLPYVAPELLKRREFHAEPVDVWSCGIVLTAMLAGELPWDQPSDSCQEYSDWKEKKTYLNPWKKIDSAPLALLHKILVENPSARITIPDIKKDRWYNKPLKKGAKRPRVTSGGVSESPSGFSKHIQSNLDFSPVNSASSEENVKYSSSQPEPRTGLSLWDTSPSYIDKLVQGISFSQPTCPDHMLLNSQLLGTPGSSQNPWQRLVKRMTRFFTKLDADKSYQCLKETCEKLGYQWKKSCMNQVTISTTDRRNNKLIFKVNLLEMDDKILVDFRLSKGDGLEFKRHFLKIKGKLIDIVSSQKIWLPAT

[11] = target: T2, Calcium/calmodulin-dependent protein kinase type IV (Homo sapiens) (UniProt Q16566); test: Inhibition of CaMK4 at 0.1 uM; values are per cent of control
T2 sequence (whole entry): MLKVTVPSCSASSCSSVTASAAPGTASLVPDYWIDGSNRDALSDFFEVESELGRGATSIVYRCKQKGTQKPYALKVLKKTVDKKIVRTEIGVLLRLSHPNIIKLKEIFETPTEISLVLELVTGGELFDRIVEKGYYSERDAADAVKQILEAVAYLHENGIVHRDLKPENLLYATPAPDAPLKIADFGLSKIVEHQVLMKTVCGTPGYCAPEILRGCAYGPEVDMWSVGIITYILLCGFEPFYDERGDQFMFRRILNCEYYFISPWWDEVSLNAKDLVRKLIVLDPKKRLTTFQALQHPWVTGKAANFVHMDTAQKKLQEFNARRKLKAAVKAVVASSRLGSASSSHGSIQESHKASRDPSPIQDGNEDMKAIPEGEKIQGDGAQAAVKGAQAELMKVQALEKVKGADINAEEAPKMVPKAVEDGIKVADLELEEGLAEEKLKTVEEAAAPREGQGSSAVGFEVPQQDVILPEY

[12] = target: T3, Protein kinase C iota type (Homo sapiens) (UniProt P41743); test: Inhibition of PKCiota at 0.1 uM; values are per cent of control
T3 sequence (whole entry): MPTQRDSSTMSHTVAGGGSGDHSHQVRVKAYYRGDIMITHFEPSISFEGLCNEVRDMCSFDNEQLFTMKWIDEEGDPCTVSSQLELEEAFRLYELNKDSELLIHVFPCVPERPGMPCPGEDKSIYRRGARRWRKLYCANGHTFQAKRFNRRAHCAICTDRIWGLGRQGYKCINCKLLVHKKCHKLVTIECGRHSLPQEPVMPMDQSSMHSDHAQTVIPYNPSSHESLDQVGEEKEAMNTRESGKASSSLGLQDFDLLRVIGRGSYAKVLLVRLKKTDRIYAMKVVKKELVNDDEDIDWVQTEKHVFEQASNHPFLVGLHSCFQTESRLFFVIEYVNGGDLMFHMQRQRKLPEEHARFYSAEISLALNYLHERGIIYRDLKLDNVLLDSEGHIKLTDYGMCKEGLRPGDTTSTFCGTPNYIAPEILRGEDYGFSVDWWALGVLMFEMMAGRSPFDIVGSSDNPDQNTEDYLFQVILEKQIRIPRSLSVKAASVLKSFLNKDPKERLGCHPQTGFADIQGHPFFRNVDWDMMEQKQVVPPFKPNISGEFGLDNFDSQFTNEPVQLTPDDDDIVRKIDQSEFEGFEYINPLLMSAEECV

[13] = target: Serine/threonine-protein kinase N2 (Homo sapiens) (UniProt Q16513); test: Inhibition of PRK2 at 1 uM; values are per cent of control
Sequence of Serine/threonine-protein kinase N2 (Homo sapiens) (Q16513 whole entry, looked up): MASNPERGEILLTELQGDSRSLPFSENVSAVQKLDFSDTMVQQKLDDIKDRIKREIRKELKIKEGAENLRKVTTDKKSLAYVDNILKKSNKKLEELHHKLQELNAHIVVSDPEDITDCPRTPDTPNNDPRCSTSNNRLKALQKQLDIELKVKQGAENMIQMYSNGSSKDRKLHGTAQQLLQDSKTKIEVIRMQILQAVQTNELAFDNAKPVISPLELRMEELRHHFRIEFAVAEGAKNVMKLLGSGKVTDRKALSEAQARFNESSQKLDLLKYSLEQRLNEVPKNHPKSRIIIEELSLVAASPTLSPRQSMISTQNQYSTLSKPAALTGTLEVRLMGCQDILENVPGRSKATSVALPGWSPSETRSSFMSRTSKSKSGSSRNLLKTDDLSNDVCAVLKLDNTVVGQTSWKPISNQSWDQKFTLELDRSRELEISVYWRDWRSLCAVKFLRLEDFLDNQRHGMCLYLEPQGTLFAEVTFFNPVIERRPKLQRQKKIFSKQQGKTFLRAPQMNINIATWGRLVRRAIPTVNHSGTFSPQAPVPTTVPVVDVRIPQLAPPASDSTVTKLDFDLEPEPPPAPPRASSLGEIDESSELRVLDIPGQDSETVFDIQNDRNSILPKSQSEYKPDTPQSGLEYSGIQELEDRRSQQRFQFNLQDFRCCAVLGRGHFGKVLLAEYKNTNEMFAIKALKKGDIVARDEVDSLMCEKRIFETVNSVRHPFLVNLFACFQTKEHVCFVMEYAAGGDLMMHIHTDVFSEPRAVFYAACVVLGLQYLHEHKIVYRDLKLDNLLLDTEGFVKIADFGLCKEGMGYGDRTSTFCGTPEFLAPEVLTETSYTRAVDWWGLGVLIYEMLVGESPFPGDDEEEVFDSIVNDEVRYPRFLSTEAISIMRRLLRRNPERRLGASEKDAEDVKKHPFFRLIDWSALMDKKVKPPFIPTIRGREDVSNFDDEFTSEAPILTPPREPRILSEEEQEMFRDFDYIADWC

Sequence of Serine/threonine-protein kinase pim-2 (Homo sapiens) (Q9P1W9 whole entry, looked up): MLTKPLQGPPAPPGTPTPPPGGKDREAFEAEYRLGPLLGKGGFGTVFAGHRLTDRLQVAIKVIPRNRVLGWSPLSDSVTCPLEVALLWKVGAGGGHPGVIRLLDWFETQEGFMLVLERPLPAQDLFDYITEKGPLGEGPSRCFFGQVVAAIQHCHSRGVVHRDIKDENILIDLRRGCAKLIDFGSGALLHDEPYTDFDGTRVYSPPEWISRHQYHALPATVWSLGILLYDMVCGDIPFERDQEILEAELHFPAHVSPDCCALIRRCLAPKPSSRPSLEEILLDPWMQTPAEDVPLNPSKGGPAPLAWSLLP
Sequence of Dual specificity mitogen-activated protein kinase kinase 1 (Homo sapiens) (Q02750 whole entry): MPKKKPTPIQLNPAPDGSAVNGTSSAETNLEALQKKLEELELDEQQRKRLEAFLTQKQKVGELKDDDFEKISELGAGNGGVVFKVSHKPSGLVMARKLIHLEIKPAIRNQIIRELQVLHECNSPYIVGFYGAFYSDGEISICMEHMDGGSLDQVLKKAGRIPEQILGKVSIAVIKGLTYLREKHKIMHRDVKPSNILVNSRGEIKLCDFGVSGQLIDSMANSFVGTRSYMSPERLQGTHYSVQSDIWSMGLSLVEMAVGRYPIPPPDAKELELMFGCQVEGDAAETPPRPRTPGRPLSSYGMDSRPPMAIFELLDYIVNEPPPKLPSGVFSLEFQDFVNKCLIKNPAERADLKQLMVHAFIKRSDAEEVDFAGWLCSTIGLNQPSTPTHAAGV
Sequence of Tyrosine-protein kinase Fes/Fps (Homo sapiens) (P07332 whole entry): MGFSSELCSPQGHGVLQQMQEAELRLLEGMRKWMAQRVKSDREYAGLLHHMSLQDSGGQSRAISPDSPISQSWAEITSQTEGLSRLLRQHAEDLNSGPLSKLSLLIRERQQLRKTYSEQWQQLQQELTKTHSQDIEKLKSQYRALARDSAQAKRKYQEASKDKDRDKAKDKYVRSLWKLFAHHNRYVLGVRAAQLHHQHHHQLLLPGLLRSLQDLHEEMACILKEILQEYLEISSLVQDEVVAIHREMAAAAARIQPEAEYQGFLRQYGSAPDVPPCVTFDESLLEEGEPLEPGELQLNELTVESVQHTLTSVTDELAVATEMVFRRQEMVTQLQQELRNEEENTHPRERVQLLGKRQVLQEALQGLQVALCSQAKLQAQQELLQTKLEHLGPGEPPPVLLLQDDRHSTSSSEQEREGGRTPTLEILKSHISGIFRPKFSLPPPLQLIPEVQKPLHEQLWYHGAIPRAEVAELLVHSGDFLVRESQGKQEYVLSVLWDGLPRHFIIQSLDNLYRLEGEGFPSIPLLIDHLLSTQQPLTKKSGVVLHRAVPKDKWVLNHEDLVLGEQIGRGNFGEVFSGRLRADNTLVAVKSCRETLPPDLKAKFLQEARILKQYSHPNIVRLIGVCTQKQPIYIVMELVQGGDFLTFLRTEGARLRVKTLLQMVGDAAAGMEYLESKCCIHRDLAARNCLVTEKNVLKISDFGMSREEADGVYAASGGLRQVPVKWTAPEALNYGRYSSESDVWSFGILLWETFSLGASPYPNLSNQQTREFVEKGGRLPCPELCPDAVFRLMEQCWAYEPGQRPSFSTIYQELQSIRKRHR
Sequence of Mitogen-activated protein kinase 14 (Homo sapiens) (Q16539 whole entry): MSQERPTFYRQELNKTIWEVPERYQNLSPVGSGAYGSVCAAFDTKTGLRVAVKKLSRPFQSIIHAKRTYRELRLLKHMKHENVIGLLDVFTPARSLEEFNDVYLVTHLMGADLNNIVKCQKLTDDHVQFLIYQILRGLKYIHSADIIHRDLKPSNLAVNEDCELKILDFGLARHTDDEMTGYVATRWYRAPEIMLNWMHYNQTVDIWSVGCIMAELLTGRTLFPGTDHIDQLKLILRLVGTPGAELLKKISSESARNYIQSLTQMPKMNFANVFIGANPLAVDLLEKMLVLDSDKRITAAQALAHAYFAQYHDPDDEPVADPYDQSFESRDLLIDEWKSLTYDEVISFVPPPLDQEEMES
Sequence of Interleukin-1 receptor-associated kinase 1 (Homo sapiens) (P51617 whole entry, looked up): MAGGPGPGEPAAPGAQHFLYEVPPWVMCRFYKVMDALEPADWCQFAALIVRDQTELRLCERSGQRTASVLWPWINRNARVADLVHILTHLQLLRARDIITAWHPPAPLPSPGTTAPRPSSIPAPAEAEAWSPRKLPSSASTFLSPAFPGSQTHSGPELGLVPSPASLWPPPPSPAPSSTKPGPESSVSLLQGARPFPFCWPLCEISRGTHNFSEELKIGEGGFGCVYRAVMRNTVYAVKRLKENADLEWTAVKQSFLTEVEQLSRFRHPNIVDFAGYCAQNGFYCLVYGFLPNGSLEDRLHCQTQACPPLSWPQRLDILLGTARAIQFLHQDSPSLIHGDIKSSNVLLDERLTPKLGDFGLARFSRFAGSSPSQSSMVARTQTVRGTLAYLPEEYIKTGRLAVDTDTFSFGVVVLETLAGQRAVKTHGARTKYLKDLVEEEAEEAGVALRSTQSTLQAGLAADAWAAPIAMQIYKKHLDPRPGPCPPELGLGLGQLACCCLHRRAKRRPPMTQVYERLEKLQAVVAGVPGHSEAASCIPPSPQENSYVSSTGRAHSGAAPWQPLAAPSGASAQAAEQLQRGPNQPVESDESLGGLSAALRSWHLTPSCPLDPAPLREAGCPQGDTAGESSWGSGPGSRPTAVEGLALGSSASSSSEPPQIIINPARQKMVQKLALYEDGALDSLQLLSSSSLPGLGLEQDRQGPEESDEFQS
Sequence of Glycogen synthase kinase-3 beta (Homo sapiens) (P49841 whole entry, looked up): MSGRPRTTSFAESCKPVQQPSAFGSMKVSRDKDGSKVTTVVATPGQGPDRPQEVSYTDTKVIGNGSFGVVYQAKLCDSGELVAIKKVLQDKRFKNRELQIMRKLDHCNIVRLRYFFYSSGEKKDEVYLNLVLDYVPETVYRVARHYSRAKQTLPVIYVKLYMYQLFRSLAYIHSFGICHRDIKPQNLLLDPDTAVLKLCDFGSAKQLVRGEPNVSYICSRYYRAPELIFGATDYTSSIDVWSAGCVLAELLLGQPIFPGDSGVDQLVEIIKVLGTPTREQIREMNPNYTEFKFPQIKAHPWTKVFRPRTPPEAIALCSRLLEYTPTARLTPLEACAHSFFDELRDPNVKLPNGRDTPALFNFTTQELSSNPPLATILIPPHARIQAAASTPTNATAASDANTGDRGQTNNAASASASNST

Row | residual activity [1] [%] | residual activity [2] [%] | residual activity [3] [%] | residual activity [4] [%] | residual activity [5] [%] | residual activity [6] [%] | residual activity [7] [%] | residual activity [8] [%] | residual activity [9] [%] | residual activity [10] [%] | residual activity [11] [%] | residual activity [12] [%] | residual activity [13] [%] | SMILES
1 | 96 | 98 | 97 | 1 | 47 | 98 | 89 | 77 | -2 | 40 | 109 | 109 | 3 | Cc1ccc2cc(-c3n[nH]c4ccc(NC5CCN(Cc6ccccc6)CC5)cc34)[nH]c2c1
2 | 51 | 99 | 97 | 0 | 56 | 73 | 105 | 85 | 2 | 6 | 74 | 89 | 49 | Cc1ccc2cc(-c3n[nH]c4ccc(NC5CCNC5)cc34)[nH]c2c1 (stereo unspecified)
